Laboratory results taken from ChEMBL document CHEMBL1158859, “Antiprotozoal compounds from Asparagus africanus” (J Nat Prod, 1997).

Columns and labels:
Plasmodium falciparum [1] = test: Antiplasmodial activity against Plasmodium falciparum schizonts assessed as [3H]hypoxanthine incorporation by liquid scintillation counting; format: functional, organism-based; conditions: Dd2
Plasmodium falciparum [2] = test: Antiplasmodial activity against chloroquine-susceptible Plasmodium falciparum 3D7 after 24 hrs by [3H]hypoxanthine uptake; format: functional, organism-based
[3] = Selectivity index, ratio of IC50 for human lymphocyte to IC50 for chloroquine-susceptible Plasmodium falciparum K39
[4] = Selectivity index, ratio of IC50 for human lymphocyte to IC50 for chloroquine-resistant Plasmodium falciparum V1/S
[5] = Selectivity index, ratio of IC50 for human lymphocyte to IC50 for Leishmania major
[6] = Inhibition of phytohemagglutininin A-induced human lymphocyte proliferation assessed as radiolabeled [14C]thymidine uptake; format: cell-based
[7] = Selectivity index, ratio of IC50 for human lymphocyte to IC50 for chloroquine-susceptible Plasmodium falciparum 3D7
Plasmodium falciparum [8] = test: Antiplasmodial activity against chloroquine-resistant Plasmodium falciparum V1/S after 48 hrs by [3H]hypoxanthine uptake; format: functional, organism-based
Leishmania major = test: Antileishmanial activity against Leishmania major promastigotes assessed as inhibition of [3H]thymidine uptake after 18 hrs by scintillation counting; format: functional, organism-based
[9] = Selectivity index, ratio of IC50 for human lymphocyte to IC50 for chloroquine-resistant Plasmodium falciparum Dd2
Plasmodium falciparum [10] = test: Antiplasmodial activity against chloroquine-sensitive Plasmodium falciparum K39 after 48 hrs by [3H]hypoxanthine uptake; format: functional, organism-based
Plasmodium falciparum [11] = test: Antiplasmodial activity against chloroquine-resistant Plasmodium falciparum Dd2 after 24 hrs by [3H]hypoxanthine uptake; format: functional, organism-based

With `C[C@@H]1CC[C@@]2(OC1)O[C@H]1C[C@H]3C4=CCC5=CC(=O)[C@@H](O)C[C@]5(C)[C@H]4C[C@H](O)[C@]3(C)[C@H]1[C@@H]2C` [MUZANZAGENIN] the Activity (Plasmodium falciparum [1]) was “Dose-dependent effect”, the IC50 (Plasmodium falciparum [1]) was 16 µM and the Activity (Plasmodium falciparum [2]) was “Dose-dependent effect”. The IC50 (Plasmodium falciparum [2]) was 23 µM, the “Ratio IC50” value [3] was 2.1 and the “Ratio IC50” value [4] was 0.8. The “Ratio IC50” value [5] was 1.8, the IC50 [6] was 129 µM and the “Ratio IC50” value [7] was 5.6. The Activity (Plasmodium falciparum [8]) was “Dose-dependent effect”, the IC50 (Plasmodium falciparum [8]) was 163 µM and the Activity (Leishmania major) was “Dose-dependent effect”. For the same compound, the IC50 (Leishmania major) was 70 µM, the “Ratio IC50” value [9] was 8 and the Activity (Plasmodium falciparum [10]) was “Dose-dependent effect”. For the same compound, the IC50 (Plasmodium falciparum [10]) was 61 µM.

Compound `C=C[C@H](/C=C\c1ccc(O)cc1)c1ccc(O)cc1` [NYASOL] has an IC50 (Plasmodium falciparum [1]) of 12 µM, an IC50 (Plasmodium falciparum [2]) of 12 µM and an IC50 (Plasmodium falciparum [11]) of 49 µM. For the same compound, the “Ratio IC50” value [5] was 4.1, the IC50 [6] was 200 µM and the “Ratio IC50” value [7] was 16.7. The IC50 (Leishmania major) was 12 µM and the “Ratio IC50” value [9] was 16.7.
